# According to patent US20060194815A1, “Methods and compositions for modulating serum cortisol levels” (priority 2003, published 2006):
# “Also recorded” adds a separate entry of the source.
# Tests used:
# [1] = target: T1, cytochrome P-450SCC (Mus musculus, UniProt Q9QZ82); experiment: 22R-hydroxycholesterol-induced 20-OH progesterone formation (P-450SCC activity) in Y1 cells; format: cell-based
# T1 construct: endogenous in cells; host or cells: Y1 mouse adrenal tumor cells
# T1 sequence (Q9QZ82 37-526): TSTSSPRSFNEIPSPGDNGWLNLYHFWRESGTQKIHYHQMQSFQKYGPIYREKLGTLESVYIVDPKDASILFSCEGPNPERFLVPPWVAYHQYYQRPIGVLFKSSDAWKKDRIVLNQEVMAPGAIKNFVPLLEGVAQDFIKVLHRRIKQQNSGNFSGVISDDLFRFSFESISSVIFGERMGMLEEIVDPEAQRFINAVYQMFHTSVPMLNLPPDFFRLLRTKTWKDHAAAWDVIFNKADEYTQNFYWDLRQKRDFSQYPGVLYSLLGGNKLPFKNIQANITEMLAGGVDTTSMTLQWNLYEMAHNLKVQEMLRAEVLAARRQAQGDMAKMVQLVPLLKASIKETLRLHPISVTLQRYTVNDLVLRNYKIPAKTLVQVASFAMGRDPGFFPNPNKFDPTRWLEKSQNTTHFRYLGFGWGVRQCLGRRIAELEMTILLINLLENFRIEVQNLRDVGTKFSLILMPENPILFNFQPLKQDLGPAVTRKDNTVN
# Method: Culture media were then changed and cells were stimulated with 1 mM dbcAMP and the treatment for 24 to 48 hours. […] The synthesis of 20-OH progesterone and progesterone in Y1 and MA-10 cell media respectively were measured by RIA (Brown et al., 1992). H295R human adrenal tumor cells were seeded in 48-well plates at 10^5 cells/well and incubated for 24 hours. […] At the end of the incubation time period, cells were treated with 1 mM dbcAMP for 48 hours. Cortisol levels in the media were determined by radioimmunoassay as previously described (Amri et al., 1996).
# [2] = tested on: PKA; experiment: dbcAMP-stimulated PKA activity in Y1 cells (PepTag assay); format: cell-based, mouse; set-up: dose or concentration left out as unconfirmed
# Method: Y1 cells were cultured in 6-well plates (2×10^5 cells per well) and treated as described above for steroid biosynthesis. At the end of the incubation, cells were washed twice with PBS and proteins were extracted using an extraction buffer (25 mM tris-HCl pH 7.4, 0.5 mM EDTA, 0.5 mM EGTA, 10 mM-mercaptoethanol, 0.5 mM PMSF, 1 g/ml leupeptin, and 1 g/ml aprotinin). After centrifugation at 18,500 g for 15 minutes, the supernatants were kept for PKA activity assay. Samples were processed using the PepTag assay for non-radioactive detection of PKA activity following the manufacturer's recommendations (Promega Corporation, Madison, Wis.).
# [3] = tested on: HMG-CoA reductase mRNA; experiment: HMG-CoA reductase mRNA expression by Q-PCR in Y1 cells; format: cell-based, mouse; conditions: for dbcAMP-induced HMG-CoA reductase mRNA levels: Y1 cells, 24 hours pretreatment, dbcAMP 24 hours
# Method: After treatment, cells were stimulated with 1 mM dbcAMP for 24 hours. At the end of the incubation, total cell RNA was extracted using. RNA STAT-60 (Tel-Test Inc, Friendswood, Tex.) according to the manufacturer's instructions. HMG-CoA reductase mRNA was quantified by Q-PCR using the ABI Prism 7700 sequence detection system (Perlin-Elmer/Applied Biosystems, Foster City, Calif.). RT reaction was performed using TaqMan® Reverse Transcription Reagents with 1 g total RNA and random hexamers as primers for each reaction according to the manufacturer's instructions. For quantifying mouse HMG-CoA reductase mRNA with Q-PCR, the primers were designed according to GenBank Accession Number BC 019782 using PE/AB Primer Express software, which is specifically designed for the selection of primers and probes. The forward primer was 5′-[…]-3′ (22 nucleotides) and reverse primer was 5′-[…]-3′ (23 nucleotides), respectively. The primers were synthesized by Bio-Synthesis Inc. (Lewisville, Tex.). Reactions were performed in a reaction mixture consisting of a 20 l volume solution containing 10 l SYBR® Green PCR Master Mix and 1 l primers mix (5 M each) with 2 l cDNA.
smiles,measurement,setting,value
CCN(CC)CCOC(=O)c1ccc(N)cc1 [procaine],effect of 22R-hydroxycholesterol on steroidogenesis,[1],did not inhibit; also recorded: did not affect
same,dbcAMP-stimulated PKA activity,[2],did not affect
same,dbcAMP-induced HMG-CoA reductase mRNA levels,[3],reduced in a dose-dependent manner
same,dbcAMP-induced HMG-CoA reductase mRNA levels,[3]; listed as Procaine,inhibited in a dose-dependent manner
same,basal HMG-CoA mRNA levels,[3]; no dbcAMP,without affecting
